Laboratory results reported in publication PMC11909128, “Identification and inhibition of PIN1-NRF2 protein–protein interactions through computational and biophysical approaches” (Scientific Reports, 2025).
Where two headings read alike, the source gives them in different places. Square brackets hold non-standard residues; d marks the D form. Ends that are not written are not given here. Peptide text beside a SMILES is read from it. * marks the point of attachment. fluorescein = fluorescein label at the N-terminus via an aminohexanoic acid (Ahx) linker; FITC = O=C1OC2(c3ccc(O)cc3Oc3cc(O)ccc32)c2ccc(NC(=S)*)cc21; pS = N[C@@H](COP(=O)(O)O)C(=O)O; Ahx = NCCCCCC(=O)O

What was measured:
PIN1-NRF2 interaction [1] = target: T1, PIN1-NRF2 interaction (Homo sapiens, UniProt Q13526, M1N); test: FP protein titration: GST-PIN1 titrated to fluorescently labelled NRF2 phospho-peptides in the presence of a fixed concentration of Pintide or PIN1 inhibitor; format: binding; details: for fold reduction in binding affinity of NRF2_209-222^pSer215 / fold reduction in binding affinity of NRF2_402-415^pSer408 / fold reduction in binding affinity of NRF2_571-584^pSer577: inhibitor 100 µM vs DMSO
T1 construct: host or cells: E. coli BL21 (DE3)
Procedure: First, GST-PIN1 was titrated to the fluorescently labelled Nrf 2 phospho-peptides (10 nM) in the presence of a fixed concentration of Pintide (10 µM).
In this study, we integrated three different PIN1 inhibitors, including juglone, epigallocatechin gallate (EGCG), and KPT-6566 (Fig. 6a). […] First, GST-PIN1 was titrated to the fluorescently labelled NRF2 phospho-peptides (10 nM) in the presence of a fixed concentration of PIN1 inhibitor (100 µM).
(§1) Fluorescence polarisation experiments were performed at room temperature in a buffer consisting of 5 mM HEPES pH 7.4, 30 mM NaCl, 0.1% v/v Tween20, and 1% v/v DMSO. Corning black, round-bottom, low-binding 384-well plates were utilized for all assays. The NRF2 mimicking fluorescein-labelled peptides, ETTMVPp[…] (NRF2_209-222^pSer215), DMVQPLp[…] (NRF2_402-415^pSer408), and EDGKPYp[…] (NRF2_571-584^pSer577) and the Pintide peptide (WFYpSPFLE) with the optimal binding for the WW domain were commercially purchased from China Peptides. For protein titration studies, GST-PIN1 was titrated to the fluorescently-labelled Nrf 2 phospho-peptides (10 nM) in the presence of a fixed concentration of PIN1 inhibitor (100 μM) or only DMSO as control group. To show PIN1 specificity, only GST protein was used as the control protein group. Fluorescence polarisation was measured using a CLARIOstar® Microplate Reader with an excitation wavelength of λex: 490/20 nm and an emission wavelength of λem: 535/20 nm. The binding affinities (Kd) were determined by sing GraphPad Prism 7 software, and sigmoidal curves were fitted using the equation: Y = Bottom + (Top − Bottom)/(1 + 10^((Log app.Kd − X) * HillSlope)), where Y represents the mP value, X denotes the log protein concentration, and Top and Bottom represent the plateaus in mP. Moreover, for the ligand displacement assays, the inhibitors were titrated to a fixed concentration of GST-PIN1 (1 μM) and fluorescently labelled NRF2 peptide (10 nM). The change in polarisation values were normalised to the DMSO control group and presented as percentage change.

PIN1 [2] = target: T2, PIN1 (Homo sapiens, UniProt Q13526); set-up: method as in PMID 28598431; details: disulfide exchange of the sulfonyl-acetate moiety at Cys113; cited from earlier work
breast cancer cells = test system: breast cancer cells; set-up: method as in PMID 28598431; details: breast cancer cells treated with KPT-6566; cited from earlier work
PIN1 [3] = target: T2, PIN1; test: Denaturing mass spectrometry of PIN1 incubated with KPT-6566 (covalent modification); details: PIN1 10 µM, KPT-6566 30 µM, 1 h
Procedure: KPT-6566 was previously shown to covalently modify the PIN1 PPIase domain at Cys113 via an unusual disulfide exchange of the sulfonyl-acetate moiety (KPT-65666-A, Fig. 7a)[31]. […] The remaining fragment of KPT-6566 (KPT-6566-B) was reported to be released into the cytoplasm. To verify this, we incubated PIN1 (10 µM) with KPT-6566 (30 µM) and then analysed the results by denaturing mass spectrometry. […] Of this, there was only a barely detectable trace of covalent PIN1 modification with KPT-6566-A (Supplementary Fig. 6a, b). […] Given these findings, the effects of both modes of covalent PIN1 modification by KPT-6566 on NRF2 phospho-peptide binding were subject to computational simulations.
From protein stock, PIN1 was diluted into an assay buffer solution of 50 mM HEPES, 300 mM NaCl pH 7.4 to a final concentration 10 μM and incubated with KPT-6566 (30 μM) for 1 h. Then, the sample was 2-times diluted by using H2O containing 0.1% v/v formic acid solution to give a final protein concentration of 0.1–1 mg/mL, and mass spectra were obtained using a Waters Acquity XEVO Q ToF instrument.

PIN1-NRF2 interaction [4] = target: T1, PIN1-NRF2 interaction; test: FP competition / ligand displacement assay: competitor titrated to fixed GST-PIN1 and fluorescently labelled NRF2 peptide; format: binding
Procedure: Next, a competition binding assay was used to determine if Pintide competed for PIN1 binding with the NRF2 peptides in a concentration dependent manner. Thus, Pintide was titrated to a fixed concentration of GST-PIN1 (1 µM) and fluorescently labelled NRF2 peptide (10 nM).
Thus, the inhibitors were titrated to a fixed concentration of GST-PIN1 (1 µM) and fluorescently labelled NRF2 peptide (10 nM).
as §1

GST-PIN1 [5] = target: GST-PIN1 (Homo sapiens, UniProt Q13526, M1N); test: Fluorescence polarisation (FP) direct binding: GST-PIN1 titrated to fluorescently labelled phospho-peptide; set-up: host or cells: E. coli BL21 (DE3); details: apparent Kd compared with Pintide
Procedure: as §1, with “Moreover, for the ligand displacement assays, the inhibitors were titrated to a fixed concentration of GST-PIN1 (1 μM) and fluorescently labelled NRF2 peptide (10 nM). The change in polarisation values were normalised to the DMSO control group and presented as percentage change.” left out

GST-PIN1 [6] = target: T3, GST-PIN1 (UniProt Q13526 1-163, methionine (Met 1) mutated to asparagine (Asn 1)); test: FP; 100 uM juglone
T3 sequence (Q13526 other isoform, or with tags, fused parts or gaps methionine (Met 1) mutated to asparagine (Asn 1)): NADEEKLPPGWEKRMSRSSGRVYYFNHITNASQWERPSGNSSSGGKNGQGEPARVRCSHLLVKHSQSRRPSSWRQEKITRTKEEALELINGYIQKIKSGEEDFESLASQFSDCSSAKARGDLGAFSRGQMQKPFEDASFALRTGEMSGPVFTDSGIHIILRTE

GST-PIN1 [7] = target: T3, GST-PIN1; test: FP; 100 uM KPT-6566
GST-PIN1 [8] = target: T3, GST-PIN1; test: FP; 100 uM EGCG
GST-PIN1 [9] = target: T3, GST-PIN1; test: FP; 10 uM Pintide
GST-PIN1 [10] = target: T4, GST-PIN1 (UniProt Q13526 1-163, methionine (Met 1) mutated to asparagine (Asn 1)); test: fluorescence polarisation; GST-PIN1 (or GST) titrated to fluorescently labelled peptide (10 nM); room temperature; 5 mM HEPES pH 7.4, 30 mM NaCl, 0.1% v/v Tween20, 1% v/v DMSO; apparent Kd, variable slope dose-response fit; details: both partners purified
T4 construct: peptidyl-prolyl cis-trans isomerase PIN1 from the GST-PIN1 plasmid (Addgene #19027); also called GST-tagged PIN1 construct; source: E. coli BL21 (DE3), purified (Glutathione spin columns)
T4 sequence (Q13526 other isoform, or with tags, fused parts or gaps with the stated changes): as the sequence (Q13526 other isoform, or with tags, fused parts or gaps methionine (Met 1) mutated to asparagine (Asn 1)) above

GST-PIN1 [11] = target: T4, GST-PIN1; test: fluorescence polarisation; competition: Pintide titrated to GST-PIN1 (1 uM) and fluorescently labelled NRF2(402-415) pSer408 peptide (10 nM); details: both partners purified
GST-PIN1 [12] = target: T4, GST-PIN1; test: fluorescence polarisation; competition: Pintide titrated to GST-PIN1 (1 uM) and fluorescently labelled NRF2(571-584) pSer577 peptide (10 nM); details: both partners purified
GST-PIN1 [13] = target: T4, GST-PIN1; test: fluorescence polarisation; competition: Pintide titrated to GST-PIN1 (1 uM) and fluorescently labelled NRF2(209-222) pSer215 peptide (10 nM); details: both partners purified
[14] = GST-PIN1 1 µM, labelled NRF2_402-415^pSer408 10 nM, read-out: IC50, inhibition of NRF2_402-415^pSer408 binding to PIN1
[15] = GST-PIN1 1 µM, labelled NRF2_571-584^pSer577 10 nM, read-out: IC50, inhibition of NRF2_571-584^pSer577 binding to PIN1

T2 sequence (Q13526 whole entry): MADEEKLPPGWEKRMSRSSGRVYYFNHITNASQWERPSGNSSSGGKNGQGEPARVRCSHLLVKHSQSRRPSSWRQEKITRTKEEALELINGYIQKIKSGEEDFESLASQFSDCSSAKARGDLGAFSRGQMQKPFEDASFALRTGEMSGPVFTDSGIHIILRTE
T1 sequence (Q13526 whole entry M1N): as the sequence (Q13526 other isoform, or with tags, fused parts or gaps methionine (Met 1) mutated to asparagine (Asn 1)) above
Chain of GST-PIN1 (Homo sapiens, UniProt Q13526, M1N) (Q13526 whole entry M1N): as the sequence (Q13526 other isoform, or with tags, fused parts or gaps methionine (Met 1) mutated to asparagine (Asn 1)) above

O=C(O[C@@H]1Cc2c(O)cc(O)cc2O[C@@H]1c1cc(O)c(O)c(O)c1)c1cc(O)c(O)c(O)c1 [EGCG, epigallocatechin gallate]
inhibitory effect on the binding of any NRF2 phospho-peptide to PIN1 (PIN1-NRF2 interaction [1]; inhibitor 100 µM, all three NRF2 phospho-peptides): did not show any inhibitory effect

CC(C)(C)c1ccc(S(=O)(=O)/N=C2\C=C(SCC(=O)O)C(=O)c3ccccc32)cc1 [KPT-6566]
PIN1 mass increase (PIN1 [2]): 90 Da
NRF2-mediated oxidative stress elements (microarray analysis) (breast cancer cells): upregulation
NRF2 downstream enzymes cFOS, HO1, NQO1, TXNRD1, DNAJB9 at the mRNA level (quantitative RT-PCR) (breast cancer cells): upregulation
extent of covalent PIN1 modification (PIN1 [3]): only a small amount of covalent PIN1 modification was observed
mass increase of the major modified PIN1 species (PIN1 [3]): 353 Da
fold reduction in binding affinity of NRF2_209-222^pSer215 (PIN1-NRF2 interaction [1]): 25 fold
fold reduction in binding affinity of NRF2_402-415^pSer408 (PIN1-NRF2 interaction [1]): 92 fold
fold reduction in binding affinity of NRF2_571-584^pSer577 (PIN1-NRF2 interaction [1]): 149 fold
IC50 (PIN1-NRF2 interaction [4]; [14]): 300 nM
IC50 (PIN1-NRF2 interaction [4]; [15]): 1400 nM
fold more potent than Juglone (PIN1-NRF2 interaction [4]; IC50 comparison, ligand displacement assay): ~ 20 fold
IC50 (PIN1-NRF2 interaction [4]; range over the three NRF2 phospho-peptides, read-out: IC50 range, inhibitory effect on PIN1-NRF2 interaction): 300 to 1400 nM

CSCC[C@H](NC(=O)[C@@H](NC(=O)[C@@H](NC(=O)[C@H](CCC(=O)O)NC(=O)CCCCCNC(=S)Nc1ccc2c(c1)C(=O)OC21c2ccc(O)cc2Oc2cc(O)ccc21)[C@@H](C)O)[C@@H](C)O)C(=O)N[C@H](C(=O)N1CCC[C@H]1C(=O)N[C@@H](COP(=O)(O)O)C(=O)N1CCC[C@H]1C(=O)N[C@@H](CCC(=O)O)C(=O)N[C@@H](C)C(=O)N[C@@H](CCCCN)C(=O)N[C@@H](CC(C)C)C(=O)N[C@H](C(=O)N[C@@H](CCC(=O)O)C(=O)O)[C@@H](C)O)C(C)C [NRF2_209-222^pSer215, ETTMVPpSPEAKLTE] ({FITC-Ahx}-ETTMVP[pS]PEAKLTE-OH; N-terminus assumed)
fold weaker interaction with PIN1 than the optimised Pintide ligand (GST-PIN1 [5]): tenfold

CSCC[C@H](NC(=O)[C@H](CC(=O)O)NC(=O)CCCCCNC(=S)Nc1ccc2c(c1)C(=O)OC21c2ccc(O)cc2Oc2cc(O)ccc21)C(=O)N[C@H](C(=O)N[C@@H](CCC(N)=O)C(=O)N1CCC[C@H]1C(=O)N[C@@H](CC(C)C)C(=O)N[C@@H](COP(=O)(O)O)C(=O)N1CCC[C@H]1C(=O)N[C@@H](CO)C(=O)N[C@@H](CCC(N)=O)C(=O)NCC(=O)N[C@@H](CCC(N)=O)C(=O)N[C@@H](CO)C(=O)N[C@H](C(=O)O)[C@@H](C)O)C(C)C [NRF2_402-415^pSer408, DMVQPLpSPSQGQST] ({FITC-Ahx}-DMVQPL[pS]PSQGQST-OH; N-terminus assumed)
fold weaker interaction with PIN1 than the optimised Pintide ligand (GST-PIN1 [5]): ~ 13 fold

O=C1C=CC(=O)c2c(O)cccc21 [juglone]
fold reduction in binding affinity of NRF2_209-222^pSer215 (PIN1-NRF2 interaction [1]): 8 fold
fold reduction in binding affinity of NRF2_402-415^pSer408 (PIN1-NRF2 interaction [1]): 18 fold
fold reduction in binding affinity of NRF2_571-584^pSer577 (PIN1-NRF2 interaction [1]): sixfold
IC50 (PIN1-NRF2 interaction [4]; GST-PIN1 1 µM, labelled NRF2_209-222^pSer215 10 nM, read-out: IC50, inhibition of NRF2_209-222^pSer215 binding to PIN1): 26800 nM
IC50 (PIN1-NRF2 interaction [4]; [14]): 20000 nM
IC50 (PIN1-NRF2 interaction [4]; [15]): 30000 nM

B1: fluorescein-labelled NRF2(571-584) pSer577 phospho-peptide (peptide)
peptide: {fluorescein-Ahx}-EDGKPY[pS]PSEYDLQ-OH
notes: NRF2 (nuclear factor erythroid 2-related factor 2), residues 571-584, in the Neh3 domain; see recheck for residue 582; source: synthetic peptide, bought: China Peptides
Kd (GST-PIN1 [6]): 1000 nM
Kd (GST-PIN1 [7]): 25300 nM
Kd (GST-PIN1 [8]): 200 nM
Kd (GST-PIN1 [9]): 1760 nM
Kd (GST-PIN1 [10]): 168 ± 25 nM

B2: fluorescein-labelled NRF2(209-222) pSer215 phospho-peptide (peptide)
peptide: {fluorescein-Ahx}-ETTMVP[pS]PEAKLTE-OH
notes: NRF2 (nuclear factor erythroid 2-related factor 2), residues 209-222, in the Neh7 domain; also called Peptide 1; source: synthetic peptide, bought: China Peptides
Kd (GST-PIN1 [6]): 1300 nM
Kd (GST-PIN1 [7]): 4040 nM
Kd (GST-PIN1 [9]): 1070 nM
Kd (GST-PIN1 [10]): 157 ± 15 nM

B3: Pintide, fluorescently labelled (peptide)
peptide: WFY[pS]PFLE
modifications: also: fluorescently labelled, site not given here
notes: source: synthetic peptide, bought: China Peptides
Kd (GST-PIN1 [10]): 17 ± 3 nM

B4: fluorescein-labelled NRF2(402-415) pSer408 phospho-peptide (peptide)
peptide: {fluorescein-Ahx}-DMVQPL[pS]PSQGQST-OH
notes: NRF2 (nuclear factor erythroid 2-related factor 2), residues 402-415, linker between the Neh6 and Neh1 domains; source: synthetic peptide, bought: China Peptides
Kd (GST-PIN1 [6]): 3900 nM
Kd (GST-PIN1 [7]): 20200 nM
Kd (GST-PIN1 [9]): 1590 nM
Kd (GST-PIN1 [10]): 221 ± 40 nM

B5: Pintide (competitor, not labelled) (peptide)
peptide: WFY[pS]PFLE
notes: also called WW domain-selective Pintide; source: synthetic peptide, bought: China Peptides
IC50 (GST-PIN1 [11]): 6800 nM
IC50 (GST-PIN1 [12]): 6700 nM
IC50 (GST-PIN1 [13]): 5700 nM
